{"source": "patent US20190153538A1", "about": "“GENE EXPRESSION BIOMARKERS FOR PERSONALIZED CANCER CARE TO EPIGENETIC MODIFYING AGENTS” (Oryzon Genomics, S.A., priority 2015, published 2019)", "key": {"[1]": {"tested_on": "19 small cell lung cancer cell lines", "test": "Cell response to LSD1 inhibition: compound potency determination in SCLC cell line panel", "assay_type": "cell-based", "details": "4 days culture", "experimental": "The compound potency determination was performed by culturing 19 small cell lung cancer cell lines […] for 4 days at 37 degrees C. at 5% CO2 in humidified incubators in the presence of serially diluted (trans)-N1-((1R,2S)-2-phenylcyclopropyl)cyclohexane-1,4-diamine bis-hydrochloride.\nAs a positive control for cytotoxicity the Hsp90 inhibitor 17-N-allylamino-17-demethoxygeldanamycin (17-AAG, a geldanamycin analogue) was used as positive control in serial dilution. Each of the cell lines was propagated and tested in distinct optimized media as recommended by ATCC or cell line source.\nSmall cell lung cancer cell lines can be categorized as “classic” or “variant”, based on their enzymatic activities, cellular morphologies, and growth phenotypes (Desmond et al., Cancer Res (1985) 45(6):2913-2923; Shoemaker R. H., Nature Reviews Cancer […] 6:813-823). Classic cells lines express elevated levels of L-dopa decarboxylase, bombesin-like immunoreactivity, neuron-specific enolase, and the brain isozyme of creatine kinase; variant cell lines continue to express neuron-specific enolase and the brain isozyme of creatine kinase, but have undetectable levels of L-dopa decarboxylase and bombesin-like immunoreactivity. Unlike classic cell lines, some variant cell lines are amplified for and have increased expression of the c-myc (MYC)oncogene.\nDepending on their responses to (trans)-N1-((1R,2S)-2-phenylcyclopropyl)cyclohexane-1,4-diamine bis-hydrochloride, cell lines are classified as either “sensitive” [5], defined as having EC50<0.05 μM, or “resistant”, defined as having EC50>=0.05 μM [R]."}, "[2]": {"tested_on": "H510A xenograft", "test": "In vivo tumor growth inhibition, NCI-H510A xenograft model", "parameters": "species or system athymic nude mice", "details": "40 μg per kg five days on/two days off, after 21 days of dosing, compared to untreated controls", "experimental": "7-8-week old athymic nude mice animals were injected with 5×10^6 H510A cells resuspended in 100 μL of 1:1 mixture of Matrigel® matrix (Corning Inc., Tewksbury/MA, C. S. Hughes et al., Proteomics (2010) 10(9):1886-90) and PBS. Tumors were staged at 200-300 mm^3 animals and distributed into dosing groups. (trans)-N1-((1R,2S)-2-phenylcyclopropyl)cyclohexane-1,4-diamine was administered at a dose of 40 μg per kg (upk) five days on/two days off until end of study. Tumor volume was measure biweekly using a digital caliber. The study was concluded when mean tumor volume within control group reached 2000 mm^3 or 28 days post-staging. Statistical analysis was performed using unpaired t-test."}}, "note": "Counter-ions that a name gives are not always drawn.", "data": [{"smiles": "N[C@H]1CC[C@H](N[C@@H]2C[C@H]2c2ccccc2)CC1", "note": "[(trans)-N1-((1R,2S)-2-phenylcyclopropyl)cyclohexane-1,4-diamine bis-hydrochloride]", "values": [{"measurement": "Cell-based response, classic versus variant SCLC cell lines", "setting": "[1]; p-value 0.0055", "value": "greater in classic SCLC cell lines compared to variant SCLC cell lines"}, {"measurement": "variant cell lines [V] that are resistant", "setting": "[1]; resistant = EC50>=0.05 μM", "value": "7 out of 8"}, {"measurement": "classic cell lines [C] that are sensitive", "setting": "[1]; sensitive = EC50<0.05 μM", "value": "9 out of 11"}]}, {"smiles": "N[C@H]1CC[C@H](N[C@@H]2C[C@H]2c2ccccc2)CC1", "note": "[(trans)-N1-((1R,2S)-2-phenylcyclopropyl)cyclohexane-1,4-diamine]", "values": [{"measurement": "tumor growth inhibition", "setting": "[2]", "value": 34, "unit": "%"}]}]}
